Laboratory results from patent US6440440B1, “Biocidal benzylbiphenyl derivatives” (priority 1998, dated 2002).

Key:
Type in all cases: cell-based
Providencia rettgeri = assay: Poison plate assay, combinations with BAC; conditions: for Calculated activity: Limpel's formula
Description: (§1) Biocidal activity against bacterial/yeast growth was determined with the poison plate assay. To obtain the required concentrations of the test compound, calculated amounts of stock solutions (DMSO) were pipetted into multi-well plates. Tryptose agar (except for Rhodotorula: PDA) was added aseptically and uniform distribution was obtained by shaking. Each plate was inoculated with a bacterial/yeast suspension. After incubation at 27° C. and 70% relative humidity, for a period long enough to allow complete growth of controls, percentage activity as compared to the control was scored.
(§2) Possible synergy was investigated using Limpel's formula (Richter, D. L., Pestic. Sci. 1987, 19: 309-315): [formula]
(§3) where EC is the expected additive response, or calculated activity, X is the observed percentage control when compound A is applied alone and Y is the observed percentage control when compound B is applied alone. Synergy was considered to occur when the observed effect, or measured activity, of a combination of both compounds was greater than the corresponding EC value.
The table C.7 to C.8 below enumerate the measured and calculated activities of BAC and compounds 20, 42 and 40 when tested as a single test compound or as a combination against Providencia rettgeri. BAC (benzalconium chloride) is a well-bacteride and was tested at a concentration of 40 and 80 μmol. Compounds 20, 40 and 42 were tested at a concentration of 10, 20, 40, 80 and 160 μmol. When a synergistic effect was observed, the “measured” and “calculated” activity are indicated with a bold typeface.

Escherichia coli = assay: Primary bacteria screening; set-up: key: score: 3 = complete inhibition of growth, 2 = growth partially controlled; conditions: test compound concentration 500 μMol in tryptose broth agar, 27° C.
Description: (§4) The stock solutions with the test compounds were pipetted into multiwell plates and mixed with warm tryptose broth agar (2.6%) in order to reach a test compound concentration of 500 μMol. The medium was allowed to cool and subsequently inoculated with the bacteria. Wells were placed in an incubator at 27° C. and a relative humidity of 70%. After sufficient growth of the untreated cultures, the test was evaluated.
(§5) 3: complete inhibition of bacterial growth
(§6) 2: bacterial growth partially controlled

Pseudomonas aeruginosa = assay: Primary bacteria screening; set-up: key: score: 3 = complete inhibition of growth, 2 = growth partially controlled; conditions: test compound concentration 500 μMol in tryptose broth agar, 27° C.
Description: as §4, §5, §6

Sporobolomyces roseus = assay: Screening against yeasts; set-up: key: 3 = complete inhibition of growth, 2 = growth partially controlled; conditions: test compound concentration 500 μmol
Description: as §4, §5, §6
(§7) A number of compounds of formula (I) were also tested in a screening against certain The test conditions are the same as described in biological example C.1. The concentration of the test compound was also 500 μmol, and the scoring system used was also the same.
Sporobolomyces roseus (21)

Rhodotorula rubra [1] = assay: Screening against yeasts; set-up: key: 3 = complete inhibition of growth, 2 = growth partially controlled; conditions: test compound concentration 500 μmol
Description: as §4, §5, §6, §7

Cellulomonas flavigena = assay: Poison plate assay, synergistic effect in combinations with BIT; conditions: for Calculated activity: Limpel's formula
Description: as §1, §2, §3
(§8) The table C.4 to C.6 below enumerate the measured and calculated activities of BIT and compounds 20, 42 and 40 when tested as a single test compound or as a combination against Rhodotorula rubra or Cellulomonas flavigena. BIT (1,2-benzisothiazol-3(2H)-one) is a well-known bacteride and was tested at a concentration of 25 and 50 μmol. Compounds 20, 40 and 42 were tested at a concentration of 25, 50 and 75 μmol. When a synergistic effect was observed, the “measured” and “calculated” activity are indicated with a bold typeface.

Rhodotorula rubra [2] = assay: as above; conditions: for Calculated activity: Limpel's formula
Description: as §1, §2, §3, §8

Debaryomyces hansenii = assay: Screening against yeasts; set-up: key: 3 = complete inhibition of growth, 2 = growth partially controlled; conditions: test compound concentration 500 μM
Description: as §4, §5, §6, §7
Debaryomyces hansenii (19)

[3] = BAC 40 μmol + compound 160 μmol
[4] = BAC 80 μmol + compound 160 μmol
[5] = combination BAC 40 μmol + compound 10 μmol
[6] = combination BAC 40 μmol + compound 20 μmol
[7] = combination BAC 40 μmol + compound 40 μmol
[8] = combination BAC 40 μmol + compound 80 μmol
[9] = combination BAC 40 μmol + compound 160 μmol
[10] = combination BAC 80 μmol + compound 10 μmol
[11] = combination BAC 80 μmol + compound 20 μmol
[12] = combination BAC 80 μmol + compound 40 μmol
[13] = combination BAC 80 μmol + compound 80 μmol
[14] = combination BAC 80 μmol + compound 160 μmol
[15] = combination BIT 25 μmol + compound 25 μmol
[16] = combination BIT 25 μmol + compound 50 μmol
[17] = combination BIT 25 μmol + compound 75 μmol
[18] = combination BIT 50 μmol + compound 25 μmol
[19] = combination BIT 50 μmol + compound 50 μmol
[20] = combination BIT 50 μmol + compound 75 μmol

With Cl.Cl.O.c1ccc(-c2ccc(C(c3ccccc3)C3CCN(C4CCNCC4)CC3)cc2)cc1 (racemic) [Co. No. 20, (±)-4-[[(1,1′-biphenyl)-4-yl]phenylmethyl](1,4′-bipiperidine)dihydrochloride monohydrate] the Calculated activity (Providencia rettgeri; BAC 40 μmol + compound 10 μmol) was 0%, the Calculated activity (Providencia rettgeri; BAC 40 μmol + compound 20 μmol) was 0% and the Calculated activity (Providencia rettgeri; BAC 40 μmol + compound 40 μmol) was 30%. It also gave a Calculated activity (Providencia rettgeri; BAC 40 μmol + compound 80 μmol) of 90%, a Calculated activity (Providencia rettgeri; [3]) of 100% and a Calculated activity (Providencia rettgeri; BAC 80 μmol + compound 10 μmol) of 100%. It also gave a Calculated activity (Providencia rettgeri; BAC 80 μmol + compound 20 μmol) of 100%, a Calculated activity (Providencia rettgeri; BAC 80 μmol + compound 40 μmol) of 100% and a Calculated activity (Providencia rettgeri; BAC 80 μmol + compound 80 μmol) of 100%. The Calculated activity (Providencia rettgeri; [4]) was 100%, the Measured activity (Providencia rettgeri; [5]) was 50% and the Measured activity (Providencia rettgeri; [6]) was 50%. The Measured activity (Providencia rettgeri; [7]) was 100%, the Measured activity (Providencia rettgeri; [8]) was 100% and the Measured activity (Providencia rettgeri; [9]) was 100%. For the same molecule, the Measured activity (Providencia rettgeri; [10]) was 100%, the Measured activity (Providencia rettgeri; [11]) was 100% and the Measured activity (Providencia rettgeri; [12]) was 100%. The Measured activity (Providencia rettgeri; [13]) was 100%, the Measured activity (Providencia rettgeri; [14]) was 100% and the Measured activity (Providencia rettgeri; compound alone 10 μmol) was 0%. It also gave a Measured activity (Providencia rettgeri; compound alone 20 μmol) of 0%, a Measured activity (Providencia rettgeri; compound alone 40 μmol) of 30% and a Measured activity (Providencia rettgeri; compound alone 80 μmol) of 90%. For the same molecule, the Measured activity (Providencia rettgeri; compound alone 160 μmol) was 100%, the “E. coli (growth inhibition score)” value (Escherichia coli) was 3 and the “P. aeruginosa (growth inhibition score)” value (Pseudomonas aeruginosa) was 3. For the same molecule, the “Test yeast (21) Sporobolomyces roseus (score)” value (Sporobolomyces roseus) was 3, the “Test yeast (20) Rhodotorula rubra (score)” value (Rhodotorula rubra [1]) was 3 and the Calculated activity (Cellulomonas flavigena; BIT 25 μmol + compound 25 μmol) was 0%. The Calculated activity (Cellulomonas flavigena; BIT 25 μmol + compound 50 μmol) was 0%, the Calculated activity (Cellulomonas flavigena; BIT 25 μmol + compound 75 μmol) was 0% and the Calculated activity (Cellulomonas flavigena; BIT 50 μmol + compound 25 μmol) was 100%. The Calculated activity (Cellulomonas flavigena; BIT 50 μmol + compound 50 μmol) was 100%, the Calculated activity (Cellulomonas flavigena; BIT 50 μmol + compound 75 μmol) was 100% and the Measured activity (Cellulomonas flavigena; [15]) was 0%. It also gave a Measured activity (Cellulomonas flavigena; [16]) of 100%, a Measured activity (Cellulomonas flavigena; [17]) of 95% and a Measured activity (Cellulomonas flavigena; [18]) of 100%. It also gave a Measured activity (Cellulomonas flavigena; [19]) of 100%, a Measured activity (Cellulomonas flavigena; [20]) of 100% and a Measured activity (Cellulomonas flavigena; compound alone 25 μmol) of 0%. It also gave a Measured activity (Cellulomonas flavigena; compound alone 50 μmol) of 0%, a Measured activity (Cellulomonas flavigena; compound alone 75 μmol) of 0% and a Calculated activity (Rhodotorula rubra [2]; BIT 25 μmol + compound 25 μmol) of 0%. It also gave a Calculated activity (Rhodotorula rubra [2]; BIT 25 μmol + compound 50 μmol) of 0%, a Calculated activity (Rhodotorula rubra [2]; BIT 25 μmol + compound 75 μmol) of 0% and a Calculated activity (Rhodotorula rubra [2]; BIT 50 μmol + compound 25 μmol) of 0%. It also gave a Calculated activity (Rhodotorula rubra [2]; BIT 50 μmol + compound 50 μmol) of 0%, a Calculated activity (Rhodotorula rubra [2]; BIT 50 μmol + compound 75 μmol) of 0% and a Measured activity (Rhodotorula rubra [2]; [15]) of 0%. The Measured activity (Rhodotorula rubra [2]; [16]) was 100%, the Measured activity (Rhodotorula rubra [2]; [17]) was 100% and the Measured activity (Rhodotorula rubra [2]; [18]) was 100%. For the same molecule, the Measured activity (Rhodotorula rubra [2]; [19]) was 100%, the Measured activity (Rhodotorula rubra [2]; [20]) was 100% and the Measured activity (Rhodotorula rubra [2]; compound alone 25 μmol) was 0%. The Measured activity (Rhodotorula rubra [2]; compound alone 50 μmol) was 0%, the Measured activity (Rhodotorula rubra [2]; compound alone 75 μmol) was 0% and the “Test yeast (19) Debaryomyces hansenii (score)” value (Debaryomyces hansenii) was 3.
Cl.Cl.NCCCNCCC(c1ccccc1)c1ccc(-c2ccccc2)cc1 (stereo not shown) [Co. No. 40] showed a Calculated activity (Providencia rettgeri; BAC 40 μmol + compound 10 μmol) of 50%, a Calculated activity (Providencia rettgeri; BAC 40 μmol + compound 20 μmol) of 50% and a Calculated activity (Providencia rettgeri; BAC 40 μmol + compound 40 μmol) of 95%. It also gave a Calculated activity (Providencia rettgeri; BAC 40 μmol + compound 80 μmol) of 100%, a Calculated activity (Providencia rettgeri; [3]) of 100% and a Calculated activity (Providencia rettgeri; BAC 80 μmol + compound 10 μmol) of 100%. For the same molecule, the Calculated activity (Providencia rettgeri; BAC 80 μmol + compound 20 μmol) was 100%, the Calculated activity (Providencia rettgeri; BAC 80 μmol + compound 40 μmol) was 100% and the Calculated activity (Providencia rettgeri; BAC 80 μmol + compound 80 μmol) was 100%. It also gave a Calculated activity (Providencia rettgeri; [4]) of 100%, a Measured activity (Providencia rettgeri; [5]) of 100% and a Measured activity (Providencia rettgeri; [6]) of 100%. The Measured activity (Providencia rettgeri; [7]) was 100%, the Measured activity (Providencia rettgeri; [8]) was 100% and the Measured activity (Providencia rettgeri; [9]) was 100%. The Measured activity (Providencia rettgeri; [10]) was 100%, the Measured activity (Providencia rettgeri; [11]) was 100% and the Measured activity (Providencia rettgeri; [12]) was 100%. It also gave a Measured activity (Providencia rettgeri; [13]) of 100%, a Measured activity (Providencia rettgeri; [14]) of 100% and a Measured activity (Providencia rettgeri; compound alone 10 μmol) of 0%. For the same molecule, the Measured activity (Providencia rettgeri; compound alone 20 μmol) was 0%, the Measured activity (Providencia rettgeri; compound alone 40 μmol) was 90% and the Measured activity (Providencia rettgeri; compound alone 80 μmol) was 100%. The Measured activity (Providencia rettgeri; compound alone 160 μmol) was 100%, the “E. coli (growth inhibition score)” value (Escherichia coli) was 3 and the “P. aeruginosa (growth inhibition score)” value (Pseudomonas aeruginosa) was 3. The “Test yeast (21) Sporobolomyces roseus (score)” value (Sporobolomyces roseus) was 3, the “Test yeast (20) Rhodotorula rubra (score)” value (Rhodotorula rubra [1]) was 3 and the “Test yeast (19) Debaryomyces hansenii (score)” value (Debaryomyces hansenii) was 3.
O=c1[nH]sc2ccccc12 [BIT, 1,2-benzisothiazol-3(2H)-one, reference compound] showed a Measured activity (Cellulomonas flavigena; BIT alone 25 μmol) of 0%, a Measured activity (Cellulomonas flavigena; BIT alone 50 μmol) of 100% and a Measured activity (Rhodotorula rubra [2]; BIT alone 25 μmol) of 0%. It also gave a Measured activity (Rhodotorula rubra [2]; BIT alone 50 μmol) of 0%.
With Cl.Cl.NCCCN1CCC(C(c2ccccc2)c2ccc(-c3ccccc3)cc2)CC1.O (stereo not shown) [Co. No. 42] the Calculated activity (Providencia rettgeri; BAC 40 μmol + compound 10 μmol) was 0%, the Calculated activity (Providencia rettgeri; BAC 40 μmol + compound 20 μmol) was 0% and the Calculated activity (Providencia rettgeri; BAC 40 μmol + compound 40 μmol) was 30%. The Calculated activity (Providencia rettgeri; BAC 40 μmol + compound 80 μmol) was 90%, the Calculated activity (Providencia rettgeri; [3]) was 100% and the Calculated activity (Providencia rettgeri; BAC 80 μmol + compound 10 μmol) was 100%. The Calculated activity (Providencia rettgeri; BAC 80 μmol + compound 20 μmol) was 100%, the Calculated activity (Providencia rettgeri; BAC 80 μmol + compound 40 μmol) was 100% and the Calculated activity (Providencia rettgeri; BAC 80 μmol + compound 80 μmol) was 100%. For the same molecule, the Calculated activity (Providencia rettgeri; [4]) was 100%, the Measured activity (Providencia rettgeri; [5]) was 50% and the Measured activity (Providencia rettgeri; [6]) was 50%. For the same molecule, the Measured activity (Providencia rettgeri; [7]) was 100%, the Measured activity (Providencia rettgeri; [8]) was 100% and the Measured activity (Providencia rettgeri; [9]) was 100%. The Measured activity (Providencia rettgeri; [10]) was 100%, the Measured activity (Providencia rettgeri; [11]) was 100% and the Measured activity (Providencia rettgeri; [12]) was 100%. It also gave a Measured activity (Providencia rettgeri; [13]) of 100%, a Measured activity (Providencia rettgeri; [14]) of 100% and a Measured activity (Providencia rettgeri; compound alone 10 μmol) of 0%. For the same molecule, the Measured activity (Providencia rettgeri; compound alone 20 μmol) was 0%, the Measured activity (Providencia rettgeri; compound alone 40 μmol) was 30% and the Measured activity (Providencia rettgeri; compound alone 80 μmol) was 90%. For the same molecule, the Measured activity (Providencia rettgeri; compound alone 160 μmol) was 100%, the “E. coli (growth inhibition score)” value (Escherichia coli) was 3 and the “P. aeruginosa (growth inhibition score)” value (Pseudomonas aeruginosa) was 3. The “Test yeast (21) Sporobolomyces roseus (score)” value (Sporobolomyces roseus) was 3, the “Test yeast (20) Rhodotorula rubra (score)” value (Rhodotorula rubra [1]) was 3 and the “Test yeast (19) Debaryomyces hansenii (score)” value (Debaryomyces hansenii) was 3.
